In US20110237594A1, “FUNGICIDE HERETOCYCLYL-TRIAZINYL-AMINO DERIVATIVES” (priority 2008, published 2011):

Legend:
[1] = logP by HPLC on reversed phase columns (EEC directive 79/831 Annex V.A8); details: gradient 10% to 95% acetonitrile
Botrytis cinerea = assay: In vivo test on Botrytis cinerea (grey mould); details: gherkin plants, sprayed 24 hours before contamination, dose 500 ppm, grading 5/7 days after contamination
Description: Plants, used as controls, are treated with an aqueous solution not containing the active material. After 24 hours, the plants are contaminated by depositing drops of an aqueous suspension of Botrytis cinerea spores (150,000 spores per ml) on upper surface of the leaves. The spores are collected from a 15-day-old culture and are suspended in a nutrient solution composed of: • 20 g/L of gelatine; • 50 g/L of D-fructose; • 2 g/L of NH4NO3; • 1 g/L of KH2PO4. The contaminated cucumber plants are settled for 5/7 days in a climatic room at 15-11° C. […] Grading is carried out 5/7 days after the contamination, in comparison with the control plants. Under these conditions, good (at least 70%) or total protection is observed at a dose of 500 ppm with the following compound: A14

Pyrenophora teres = assay: In vivo test on Pyrenophora teres (barley net blotch); details: barley plants, sprayed 24 hours before contamination, dose 500 ppm, grading 12 days after contamination
Description: Barley plants (Express variety), sown on a 50/50 peat soil-pozzolana substrate in starter cups and grown at 12° C., are treated at the 1-leaf stage (10 cm tall) by spraying with the active ingredient prepared as described above. Plants, used as controls, are treated with an aqueous solution not containing the active material. After 24 hours, the plants are contaminated by spraying them with an aqueous suspension of Pyrenophora teres spores (12,000 spores per ml). The spores are collected from a 12-day-old culture. […] Grading is carried out 12 days after the contamination, in comparison with the control plants. Under these conditions, good (at least 70%) is observed at a dose of 500 ppm with the following compound: A14

Pyricularia oryzae = format: in vivo; details: rice, protective, 250 ppm of active ingredient, evaluated 5 days after inoculation
Rhizoctonia solani = assay: Rhizoctonia test (rice) / protective; format: in vivo; details: 250 ppm of active ingredient, evaluated 4 days after inoculation
Description: To produce a suitable preparation of active compound, 1 part by weight of active compound is mixed with the stated amounts of solvent and emulsifier, and the concentrate is diluted with water to the desired concentration. To test for protective activity, young plants are sprayed with the preparation of active compound at the stated rate of application. One day after spraying, the plants are inoculated with a hypha of the causal agent of rice sheath blight (Rhizoctonia solani). The plants are then placed in an incubator at approximately 25° C. and a relative atmospheric humidity of approximately 100%.

Cochliobolus miyabeanus = assay: Cochliobolus test (rice) / protective; format: in vivo; details: 250 ppm of active ingredient, evaluated 4 days after inoculation
[2] = [c] LC-MS at pH 7.8, 0.001 molar ammonium hydrogen carbonate in water
[3] = unmarked values: LC-MS at pH 2.7, 0.1% formic acid in water / acetonitrile

## COCC(C)Nc1cc(-c2ncnc(Nc3ccc(OC)nc3)n2)ccn1 (centres unmarked) [Compound A1]
[1]; [2]
  Lop p: 2.25[c];
[1]; [3]
  Lop p: 1.3

## COc1ccc(Nc2ncnc(-c3ccnc(NCC(C)C)c3)n2)cn1 [Compound A2, N-(6-methoxypyridin-3-yl)-4-{2-[(2-methylpropyl)amino]pyridin-4-yl}-1,3,5-triazin-2-amine]
[1]; [2]
  Lop p: 2.52[c]

## CCSCCNc1cc(-c2ncnc(Nc3ccc(OC)nc3)n2)ccn1 [Compound A4]
[1]; [2]
  Lop p: 2.78[c]

## COc1ccc(Nc2ncnc(-c3ccnc(NC(C)CN(C)C)c3)n2)cn1 (centres unmarked) [Compound A5]
[1]; [2]
  Lop p: 1.45[c]

## C=C(C)CNc1cc(-c2ncnc(Nc3ccc(OC)nc3)n2)ccn1 [Compound A6]
[1]; [2]
  Lop p: 2.57[c]

## COc1ccc(Nc2ncnc(-c3ccnc(NCCCSC)c3)n2)cn1 [Compound A7]
[1]; [2]
  Lop p: 2.62[c]

## COc1ccc(Nc2ncnc(-c3ccnc(NCC(C)O)c3)n2)cn1 (centres unmarked) [Compound A8]
[1]; [2]
  Lop p: 1.7[c]

## CCC(O)CNc1cc(-c2ncnc(Nc3ccc(OC)nc3)n2)ccn1 (centres unmarked) [Compound A9]
[1]; [2]
  Lop p: 1.97[c]

## COc1ccc(Nc2ncnc(-c3ccnc(NCCOC(C)C)c3)n2)cn1 [Compound A10]
[1]; [2]
  Lop p: 2.53[c]

## COc1ccc(Nc2ncnc(-c3ccnc(NCCC(C)C)c3)n2)cn1 [Compound A11]
[1]; [2]
  Lop p: 3.27[c]

## COc1ccc(Nc2ncnc(-c3ccnc(NCCSC)c3)n2)cn1 [Compound A12]
[1]; [2]
  Lop p: 2.44[c]

## COc1ccc(Nc2ncnc(-c3ccnc(NCC4CCCO4)c3)n2)cn1 (centres unmarked) [Compound A13]
[1]; [2]
  Lop p: 2.17[c]

## CCC(C)Nc1cc(-c2ncnc(Nc3ccc(OC)nc3)n2)ccn1 (centres unmarked) [Compound A14]
Botrytis cinerea
  protection (good, at least 70%, or total): at least 70%
Pyrenophora teres
  protection (good, at least 70%): at least 70%
Pyricularia oryzae
  efficacy: ≥ 80%
Rhizoctonia solani
  efficacy: ≥ 80%
Cochliobolus miyabeanus
  efficacy: ≥ 80%
[1]; [2]
  Lop p: 2.47[c]

## COCC(C)Nc1cc(-c2ncnc(Nc3ccsc3)n2)ccn1 (centres unmarked) [Compound A15]
[1]; [3]
  Lop p: 1.4

## CC(C)CN(C)c1cc(-c2ncnc(Nc3ccsc3)n2)ccn1 [Compound A16]
[1]; [3]
  Lop p: 1.86

## CC(C)C(C)Nc1cc(-c2ncnc(Nc3ccsc3)n2)ccn1 (centres unmarked) [Compound A17]
[1]; [3]
  Lop p: 1.79

## COCCNc1cc(-c2ncnc(Nc3ccsc3)n2)ccn1 [Compound A18]
[1]; [3]
  Lop p: 1.28

## CC(C)(C)OC(=O)Nc1cc(-c2ncnc(Nc3ccsc3)n2)ccn1 [Compound A19]
[1]; [3]
  Lop p: 3.39

## Nc1cc(-c2ncnc(Nc3ccsc3)n2)ccn1 [Compound A20]
[1]; [3]
  Lop p: 0.98

## CN(CC1CC1)c1cc(-c2ncnc(Nc3ccsc3)n2)ccn1 [Compound A21]
[1]; [3]
  Lop p: 1.75

## CCC(C(C)OC)N(C)c1cc(-c2ncnc(Nc3ccsc3)n2)ccn1 (centres unmarked) [Compound A22]
[1]; [3]
  Lop p: 2.14

## CN(CC(F)(F)F)c1cc(-c2ncnc(Nc3ccsc3)n2)ccn1 [Compound A23]
[1]; [3]
  Lop p: 3.42

## CN(CC1CCCO1)c1cc(-c2ncnc(Nc3ccsc3)n2)ccn1 (centres unmarked) [Compound A24]
[1]; [3]
  Lop p: 1.59

## COC1CCCN(c2cc(-c3ncnc(Nc4ccsc4)n3)ccn2)C1 (centres unmarked) [Compound A25]
[1]; [3]
  Lop p: 1.74

## COCCN(C)c1cc(-c2ncnc(Nc3ccsc3)n2)ccn1 [Compound A26]
[1]; [3]
  Lop p: 1.45

## C=CCN(C)c1cc(-c2ncnc(Nc3ccsc3)n2)ccn1 [Compound A27]
[1]; [3]
  Lop p: 1.48

## CCCN(C)c1cc(-c2ncnc(Nc3ccsc3)n2)ccn1 [Compound A28]
[1]; [3]
  Lop p: 1.63

## CCN(CC)c1cc(-c2ncnc(Nc3ccsc3)n2)ccn1 [Compound A29]
[1]; [3]
  Lop p: 1.57

## CCC(COC)Nc1cc(-c2ncnc(Nc3ccsc3)n2)ccn1 (centres unmarked) [Compound A30]
[1]; [3]
  Lop p: 1.6

## CCCC(C)Nc1cc(-c2ncnc(Nc3ccsc3)n2)ccn1 (centres unmarked) [Compound A31]
[1]; [3]
  Lop p: 1.84

## CC(C)CCN(C)c1cc(-c2ncnc(Nc3ccsc3)n2)ccn1 [Compound A32]
[1]; [3]
  Lop p: 2.18

## CC(C)=CCN(C)c1cc(-c2ncnc(Nc3ccsc3)n2)ccn1 [Compound A33]
[1]; [3]
  Lop p: 2.14

## CN(c1cc(-c2ncnc(Nc3ccsc3)n2)ccn1)C1CCCC1 [Compound A34]
[1]; [3]
  Lop p: 1.93

## CN(C)c1cc(-c2ncnc(Nc3ccsc3)n2)ccn1 [Compound A35]
[1]; [3]
  Lop p: 1.22

## O=CNc1cc(-c2ncnc(Nc3ccsc3)n2)ccn1 [Compound A36]
[1]; [3]
  Lop p: 1.9
